# Assay results: patent publication EP0252380B1, “Antibiotic LL-E19020 alpha and beta” (AMERICAN CYANAMID COMPANY, priority 1986, dated 1988)
# Experiments:
# [1] = test system: Trichostrongylus colubriformis; experiment: Trichostrongylus colubriformis/gerbil anthelmintic evaluation; format: in vivo, Gerbils
# Protocol: Gerbils are infected with 400 infective larvae of the sheep parasite, T. colubriformis on a day 0. On day 7 gerbils are divided into test and untreated control groups of 2-3 animals. Drug is administered in the feed and are fed from day 7-11. Drugs may also be given by gavage (single oral dose) or injected subcutaneously. Single doses are usually administered on day 7. Gerbils are killed on day 11 and small intestines removed. The number of T. colubriformis remaining in the intestines of treated animals are counted and compared to the number remaining in the untreated controls.
# Pasteurella multocida = experiment: Minimum inhibitory concentration by agar dilution (Table VI); format: cell-based; details: 6 strains tested
# Enterobacter cloacae = experiment: In vitro antibacterial activity, standard agar dilution method (Table II); format: cell-based; details: strain VGH-84-37
# [2] = test system: Pasteurella haemolytica 30660; experiment: Pasteurella disk test (primary in vitro disk diffusion test); format: cell-based; details: disks soaked in 2.5 mg/ml solution; strain 30660
# Streptococcus pyogenes = experiment: Minimum inhibitory concentration by agar dilution (Table VI); format: cell-based; details: 2 strains tested
# [3] = test system: Bordetella bronchiseptica; experiment: as above; format: cell-based; details: 4 strains tested
# Peptococcus magnus = experiment: In vitro antibacterial activity, standard agar dilution method (Table II); format: cell-based
# Caenorhabditis elegans = experiment: Control of the free living nematode Caenorhabditis elegans (motility rating); format: cell-based; design: key: 9 = worms immobile or dead within 4 hours post immersion in microfilter test solution; 8 = no motility; 7 = markedly reduced motility in approximately 95% of worms; 6 = reduced motility; 5 = slightly reduced motility; 0 = normal motility, same as controls; details: 150 ppm; motility of adults and larvae
# From the text: Culture Maintenance: Cultures of C. elegans (Bristol strain from J. Lewis) are maintained on E. coli lawns on NG Agar Plates at 20 C. New cultures are established weekly. Nematodes for testing are washed from 4-5 day old cultures using Fresh Ascaris ringers Solution (FARS). The worms are further washed with FARS, containing gentamycin, to reduce bacterial contamination and centrifuged to separate worms from wash solution. This procedure is repeated three times. The washed worms are than added to C. briggsae Maintenance Medium (CbMM), from GIBCO^a to which is added gentamycin (600 units/ml) and mycostatin (0.5 mg.ml). ^aGIBCO Laboratories, 3175 Staley Road, Grand Island, N.Y. 14027, USA Compounds are dissolved in acetone and made up to volume with equal parts of water. The final test concentration of each compound in the mixture is 150 ppm. The test material is micropipetted (25 ul) into a single well of a 96-well sterile tissue culture plate (COSTAR)^b and the solvent allowed to evaporate. These "treated" plates are used immediately or stored in a freezer without apparent adverse effects on the compounds. ^b205 Broadway, Cambridge, MA 02139, USA […] […] Immediately prior to reading the plate, it is gently tapped to stimulate the movement of the worms. Activity is judged subjectively, but semi-quantitatively, based on the drug effects on motility of the adults and larvae. […]
# [4] = test system: Pasteurella multocida 31081B; experiment: Pasteurella disk test (primary in vitro disk diffusion test); details: disks soaked in 2.5 mg/ml solution; strain 31081B
# Treponema hyodysenteriae [5] = experiment: T. hyodysenteriae disk test (primary in vitro disk diffusion test); details: disks soaked in 2.5 mg/ml solution, zones of inhibited hemolysis
# [6] = test system: In Vitro Rumen Fermentation; experiment: Propionate enhancement activity during in vitro rumen fermentation; format: cell-based, steer; details: for A:P: acetate/propionate ratio
# Protocol: The drugs are dissolved or suspended (sonified if necessary) in a 0.1% Tween 20-ethanol-water vehicle and 25-50 ul is added to the incubation. The reaction is terminated with 6N HCl and centrifuged at 20,000 x g. Alliquots of the superinatant are analyzed for volatile fatty acid (VFA) content by gas-liquid chromatography.
# [7] = test system: Staphylococcus saprophyticus; experiment: In vitro antibacterial activity, standard agar dilution method (Table II); format: cell-based; details: strain VHG-84-50
# Streptococcus pneumoniae = experiment: as above; format: cell-based
# Enterococcus = experiment: as above; format: cell-based
# [8] = test system: Mycoplasma gallisepticum "R"; experiment: Minimum inhibitory concentration assay for Mycoplasma gallisepticum (microdilution, Table VII); details: microdilution; "R" strain
# Escherichia coli = experiment: In vitro antibacterial activity, standard agar dilution method (Table II); format: cell-based; details: strain 311
# Streptococcus uberis = experiment: Minimum inhibitory concentration by agar dilution (Table VI); format: cell-based; details: 1 strain tested
# Treponema hyodysenteriae [9] = experiment: Minimum inhibitory concentration by microdilution (Table VII); format: cell-based
# Clostridium difficile = experiment: In vitro antibacterial activity, standard agar dilution method (Table II); format: cell-based; details: strain ATCC 17858
# [10] = test system: Staphylococcus epidermidis; experiment: as above; format: cell-based; details: strain IO-83-58
# Streptococcus faecalis = experiment: Minimum inhibitory concentration by agar dilution (Table VI); format: cell-based; details: 1 strain tested
smiles,measurement,setting,value
C/C=C\C=C\[C@@H]1O[C@](O)([C@H](CO[C@H]2C[C@@H](OC)[C@@H](O[C@@H]3C[C@@H](OC)[C@@H](O[C@H]4C[C@H](OC)[C@H](O)[C@H](C)O4)[C@H](C)O3)[C@@H](C)O2)C(=O)NC/C=C/C=C(\C)[C@@H](OC)[C@H](C)[C@H]2C[C@H](O)[C@H](/C=C/C=C/C=C/C(=O)O)O2)[C@H](OC(=O)Cc2ccccc2)[C@H](O)C1(C)C [LL-E19020 alpha],% Worms Removed,[1]; 10 m/kg single oral dose,23%
same,% Worms Removed,"[1]; 250 ppm diet, fed day 7-11",56%
same,MIC,Pasteurella multocida,8 to 16 µg/mL
same,Minimal Inhibitory Concentration,Enterobacter cloacae,>256 µg/mL
same,ZONE SIZE,[2],13 mm
same,MIC,Streptococcus pyogenes,2 µg/mL
same,MIC,[3],> 256 µg/mL
same,Minimal Inhibitory Concentration,Peptococcus magnus; strain ATCC 14956,0.12 µg/mL
same,Minimal Inhibitory Concentration,Peptococcus magnus; strain ATCC 29328,0.12 µg/mL
same,Rating,Caenorhabditis elegans,9 (immobile or dead)
same,ZONE SIZE,[4],15 mm
same,ZONE SIZE,Treponema hyodysenteriae [5]; strain B78 (ATCC 27164),0 mm
same,ZONE SIZE,Treponema hyodysenteriae [5]; strain B204 (ATCC 31212),15 mm
same,A:P,"[6]; Table X, 0.008 PPM, control 2.65",2.66
same,TOTAL VFA,"[6]; Table X, 0.008 PPM, control 159.4",161.2 mM
same,A:P,"[6]; Table X, 0.031 PPM, control 2.65",2.43
same,TOTAL VFA,"[6]; Table X, 0.031 PPM, control 159.4",158.4 mM
same,A:P,"[6]; Table X, 0.125 PPM, control 2.65",2.14
same,TOTAL VFA,"[6]; Table X, 0.125 PPM, control 159.4",159.2 mM
same,A:P,"[6]; Table X, 0.500 PPM, control 2.65",2.27
same,TOTAL VFA,"[6]; Table X, 0.500 PPM, control 159.4",146.9 mM
same,A:P,"[6]; Table X, 2.000 PPM, control 2.65",2.21
same,TOTAL VFA,"[6]; Table X, 2.000 PPM, control 159.4",150.5 mM
same,A:P,"[6]; Table XI, 0.015 PPM, control 2.19",2.05
same,TOTAL VFA,"[6]; Table XI, 0.015 PPM, control 125.3",125.1 mM
same,A:P,"[6]; Table XI, 0.031 PPM, control 2.19",1.96
same,TOTAL VFA,"[6]; Table XI, 0.031 PPM, control 125.3",126.5 mM
same,A:P,"[6]; Table XI, 0.062 PPM, control 2.19",1.90
same,TOTAL VFA,"[6]; Table XI, 0.062 PPM, control 125.3",126.3 mM
same,A:P,"[6]; Table XI, 0.125 PPM, control 2.19",1.92
same,TOTAL VFA,"[6]; Table XI, 0.125 PPM, control 125.3",121.9 mM
same,A:P,"[6]; Table XI, 0.250 PPM, control 2.19",1.85
same,TOTAL VFA,"[6]; Table XI, 0.250 PPM, control 125.3",121.1 mM
same,Minimal Inhibitory Concentration,[7],> 256 µg/mL
same,Minimal Inhibitory Concentration,Streptococcus pneumoniae; strain K-84-21,1 µg/mL
same,Minimal Inhibitory Concentration,Streptococcus pneumoniae; strain SVI,1 µg/mL
same,Minimal Inhibitory Concentration,Streptococcus pneumoniae; strain VGH-84-56,1 µg/mL
same,Minimal Inhibitory Concentration,Streptococcus pneumoniae; strain VGH-84-57,2 µg/mL
same,Minimal Inhibitory Concentration,Streptococcus pneumoniae; strain VGH-84-58,0.25 µg/mL
same,Minimal Inhibitory Concentration,Streptococcus pneumoniae; strain VGH-84-59,0.25 µg/mL
same,Minimal Inhibitory Concentration,Enterococcus; strain CMC-83-72,>256 µg/mL
same,Minimal Inhibitory Concentration,Enterococcus; strain IO-83-28,>256 µg/mL
same,Minimal Inhibitory Concentration,Enterococcus; strain IO-83-40,>256 µg/mL
same,Minimal Inhibitory Concentration,Enterococcus; strain VGH-84-65,256 µg/mL
same,Minimal Inhibitory Concentration,Enterococcus; strain VGH-84-68,>256 µg/mL
same,MIC,[8],0.125 µg/mL
same,Minimal Inhibitory Concentration,Escherichia coli,>256 µg/mL
same,MIC,Streptococcus uberis,8 µg/mL
same,MIC,Treponema hyodysenteriae [9]; strain B78 (ATCC 27164),1 µg/mL
same,MIC,Treponema hyodysenteriae [9]; strain B204 (ATCC 31212),1 µg/mL
same,Minimal Inhibitory Concentration,Clostridium difficile,4 µg/mL
same,Minimal Inhibitory Concentration,[10],> 256 µg/mL
same,MIC,Streptococcus faecalis,8 µg/mL
